Patent US20100056524A1, “Compound” (priority 2008, published 2010)
Counter-ions that a name gives are not always drawn.

target: T1, TBK1 (Homo sapiens, UniProt Q9UHD2); test: TBK1 protein kinase assay ([γ-33P]ATP, P81 filterplates); type: biochemical; conditions: 50 μM ATP; read-out: Potency (TBK1 IC50 potency score)
T1 construct: All protein kinases were of human origin and encoded full length proteins, unless indicated otherwise; His6; made in house; host or cells: insect Sf21 cells
T1 sequence (Q9UHD2 1-729): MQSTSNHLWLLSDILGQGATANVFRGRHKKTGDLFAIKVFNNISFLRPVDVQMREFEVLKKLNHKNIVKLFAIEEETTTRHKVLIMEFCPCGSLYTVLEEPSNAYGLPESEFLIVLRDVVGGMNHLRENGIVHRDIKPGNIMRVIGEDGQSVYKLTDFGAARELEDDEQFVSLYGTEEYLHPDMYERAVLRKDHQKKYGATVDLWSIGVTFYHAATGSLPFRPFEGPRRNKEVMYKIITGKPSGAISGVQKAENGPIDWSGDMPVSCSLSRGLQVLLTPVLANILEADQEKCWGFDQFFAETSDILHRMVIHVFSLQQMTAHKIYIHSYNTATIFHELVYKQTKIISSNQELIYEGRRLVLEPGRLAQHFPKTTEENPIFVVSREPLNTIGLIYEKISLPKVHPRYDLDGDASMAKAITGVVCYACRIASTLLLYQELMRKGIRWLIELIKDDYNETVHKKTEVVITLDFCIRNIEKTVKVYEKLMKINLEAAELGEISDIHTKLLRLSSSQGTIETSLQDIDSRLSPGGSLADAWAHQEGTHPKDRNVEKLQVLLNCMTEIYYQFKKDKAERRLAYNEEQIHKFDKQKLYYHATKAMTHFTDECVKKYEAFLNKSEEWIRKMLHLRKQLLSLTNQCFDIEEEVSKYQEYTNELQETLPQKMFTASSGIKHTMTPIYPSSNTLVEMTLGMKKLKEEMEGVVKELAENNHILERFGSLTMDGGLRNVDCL
Excerpt: All protein kinases were of human origin and encoded full length proteins, unless indicated otherwise. They were either expressed as glutathione S-transferase (GST) fusion proteins in Escherichia Coli or as hexahistidine (His6)-tagged proteins in insect Sf21 cells. GST fusion proteins were purified by affinity chromatography on glutathione-Sepharose, and His6-tagged proteins on nickel/nitriloacetate-agarose. The procedures for expressing some of the protein kinases used herein have been detailed previously.^8,9 The following sections outline the DNA vectors synthesised and the procedures used to express and purifying protein kinases that have not been reported previously.
The following kinases were expressed in Sf21 cells: Aurora B and Aurora C, extra-cellular signal-regulated kinase 8 (ERK8), microtubule affinity regulating kinase 3 (MARK3), protein kinase Bα[118-480][S473D], protein kinase Bβ (PKBβ[120-481][S474D], 3-phosphoinositide-dependent protein kinase-1 [52-556]
Assays were performed for 30 min using Multidrop Micro reagent dispensers (Thermo Electron Corporation, Waltham, Mass. 02454, USA) in a 96-well format. The concentration of magnesium acetate in the assays was 10 mM and the [γ-33P] ATP (800 cpm/pmol) was used at 5, 20 or 50 μM as indicated, in order to be at or below the Km for ATP for each enzyme. Protein kinases assayed at 5 μM ATP were: —ERK1, ERK8, PKBα, MARK3, Aurora C. Protein kinases assayed at 20 μM ATP were: —JNK1, PDK1, CHK1, CHK2, CDK2 and Aurora B. Protein kinases assayed at 50 μM ATP were: —MNK2, IKKepsilon and TBK1.
The assays were initiated with MgATP, stopped by addition of 5 μl of 0.5 M orthophosphoric acid and spotted on to P81 filterplates using a unifilter harvester (PerkinElmer, Boston, Mass. 02118, USA). The IC50 values of inhibitors were determined after carrying out assays at 10 different concentrations of each compound.
ERK1 and ERK8 were both assayed against myelin basic protein (MBP, 0.33 mg/ml). MARK3 was assayed against the peptide […] (300 μM), MNK2 against the eIF4E protein (0.5 mg/ml). PKBβ was assayed against the peptide […] (30 μM). TBK1 were assayed against ([…]) (300 μM). The substrates used for other protein kinases were described previously.^8,9
Unless stated otherwise, enzymes were diluted in 50 mM Tris/HCl pH 7.5, 0.1 mM EGTA, 1 mg/ml BSA, 0.1% (v/v) 2-mercaptoethanol and assayed in 50 mM Tris/HCl pH 7.5, 0.1 mM EGTA, 0.1% (v/v) 2-mercaptoethanol.

| SMILES | IC50 [nM] |
| --- | --- |
| O=C(NCCCNc1nc(Nc2cccc(F)c2)ncc1C1CC1)C1CCCC1 [Example 22, Cyclopentanecarboxylic acid {3-[5-cyclopropyl-2-(3-fluoro-phenylamino)pyrimidin-4-ylamino]-propyl}-amide] | < 100 |
| O=C(CC1CC1)NCCCNc1nc(Nc2cccc(F)c2)ncc1C1CC1 [Example 24, 2-Cyclopropyl-N-{3-[5-cyclopropyl-2-(3-fluoro-phenylamino)-pyrimidin-4-ylamino]-propyl}-acetamide] | < 100 |
| O=C(NCCCNc1nc(Nc2cccc(F)c2)ncc1C1CC1)C1CC1 [Example 25, Cyclopropanecarboxylic acid {3-[5-cyclopropyl-2-(3-fluoro-phenylamino)-pyrimidin-4-ylamino]-propyl}-amide] | 100 to 1000 |
| O=C(NCCCNc1nc(Nc2cccc(F)c2)ncc1C1CC1)c1cccs1 [Example 26, Thiophene-2-carboxylic acid {3-[5-cyclopropyl-2-(3-fluoro-phenylamino)-pyrimidin-4-ylamino]-propyl}-amide] | 100 to 1000 |
| O=C(NCCCNc1nc(Nc2cccc(C(F)(F)F)c2)ncc1C1CC1)c1cccs1 [Example 27, Thiophene-2-carboxylic acid {3-[5-cyclopropyl-2-(3-trifluoromethyl-phenylamino)-pyrimidin-4-ylamino]-propyl}-amide] | 100 to 1000 |
| CC(=O)Nc1ccc(Nc2ncc(C3CC3)c(NCCCNC(=O)c3cccs3)n2)cc1 [Example 28, Thiophene-2-carboxylic acid {3-[2-(4-acetylamino-phenylamino)-5-cyclopropyl-pyrimidin-4-ylamino]-propyl}-amide. Hydrochloride salt] | < 100 |
| O=C(NCCCNc1nc(Nc2cccc(O)c2)ncc1C1CC1)c1cccs1 [Example 29, Thiophene-2-carboxylic acid {3-[5-cyclopropyl-2-(3-hydroxy-phenylamino)-pyrimidin-4-ylamino]-propyl}-amide Trifluoroacetic acid salt] | 1000 to 10000 |
| Cc1ccc(Nc2ncc(C3CC3)c(NCCCNC(=O)c3cccs3)n2)cn1 [Example 30, Thiophene-2-carboxylic acid {3-[5-cyclopropyl-2-(6-methyl-pyridin-3-ylamino)-pyrimidin-4-ylamino]-propyl}-amide] | 1000 to 10000 |
| CC(C)(C)OC(=O)Nc1cccc(Nc2ncc(C3CC3)c(NCCCNC(=O)c3cccs3)n2)c1 [Example 31, [3-(5-Cyclopropyl-4-{3-[(thiophene-2-carbonyl)-amino]-propylamino}-pyrimidin-2-ylamino)-phenyl]-carbamic acid tert-butyl ester] | 1000 to 10000 |
| CS(=O)(=O)Nc1cccc(Nc2ncc(C3CC3)c(NCCCNC(=O)c3cccs3)n2)c1 [Example 32, Thiophene-2-carboxylic acid {3-[5-cyclopropyl-2-(3-methanesulfonylamino-phenylamino)-pyrimidin-4-ylamino]-propyl}-amide trifluoroacetic acid salt] | < 100 |
| COC(=O)c1cccc(Nc2ncc(C3CC3)c(NCCCNC(=O)c3cccs3)n2)c1 [Example 33, 3-(5-Cyclopropyl-4-{3-[(thiophene-2-carbonyl)-amino]-propylamino}-pyrimidin-2-ylamino)-benzoic acid methyl ester trifluoroacetic acid salt] | 100 to 1000 |
| O=C(O)c1cccc(Nc2ncc(C3CC3)c(NCCCNC(=O)c3cccs3)n2)c1 [Example 34, 3-(5-Cyclopropyl-4-{3-[(thiophene-2-carbonyl)-amino]-propylamino}-pyrimidin-2-ylamino)-benzoic acid trifluoroacetic acid salt] | 100 to 1000 |
| O=C(NCCCNc1nc(Nc2cccc(OC(F)(F)F)c2)ncc1C1CC1)c1cccs1 [Example 35, Thiophene-2-carboxylic acid {3-[5-cyclopropyl-2-(3-trifluoromethoxy-phenylamino)-pyrimidin-4-ylamino]-propyl}-amide trifluoroacetic acid salt] | 100 to 1000 |
